For data set [1], the system named is GAG Release. To be noted: Human articular cartilage, IL-1β induced; JPET, 308, 767-773, 2004; read-out: GAG Release inhibitory activity IC50; cited from earlier work.
For data set [2], the system named is PGE2 Synthesis. To be noted: Human articular chondrocytes, IL-1β induced; Free Rad.Biol.Med. 33, 1097-1105, 2002; read-out: PGE2 Synthesis inhibitory activity IC50; cited from earlier work.
Data set [3] has as its system NO Synthesis. To be noted: Human articular chondrocytes, IL-1β induced; Free Rad.Biol.Med. 33, 1097-1105, 2002; read-out: NO Synthesis inhibitory activity IC50; cited from earlier work.
Data set [4] has as its system PGE2 Synthesis. To be noted: Human chondrocytes, IL-1β induced; Osteoarthritis and Cartilage, 2000, 8(6), 434; read-out: PGE2 Synthesis inhibitory activity IC50; cited from earlier work.
For data set [5], the system named is NO Synthesis. To be noted: Bovine articular cartilage, IL-1β induced; Osteoarthritis and Cartilage, 2000, 8(6), 434; read-out: NO Synthesis inhibitory activity IC50; cited from earlier work.
Data set [6] has as its system IL-1β induced GAG release. Nature of the data set: IL-1β induced GAG release in chondrocyte culture (DMB assay). The data set is classed as cell-based, New Zealand white rabbits. To be noted: Oryctolagus cuniculus, rabbit articular chondrocytes, stimulation with 0.3 ng/mL of IL-1β, 24 h, read-out: GAG Release inhibitory activity IC50. As to the method: (§1) Inhibitory effects of compounds of this invention were assessed according to the following in vitro assay:
(§2) Normal articular chondrocytes were obtained from young New Zealand white rabbits. Shoulders, femoral heads and knees were detached and transferred under a laminar flow hood. The articular cartilage was removed from the articular surfaces under sterile conditions. Tissue fragments were successively digested in an incubator (37°C, 5% CO2/95% air) with enzymes dissolved in DMEM plus 50 µg/ml gentamicin and sterile filtered. The three-step digestion was carried out with 0.05% testicular hyaluronidase for 15 min, followed by 0.25% trypsin for 30 min, and 0.2% clostridium collagenase for 90 min. At the end of the incubation period, chondrocyte suspension was two-fold diluted with DMEM plus 10% FCS, passed through a 200 µm and a 50 µm nylon sieves to remove debris and undigested matrix particles. […]
Proteoglycans associated to cell monolayer were quantified with Dimethylmethylene blue (DMB) assay. […] The absorbance was read within 20 min at 590 nm with a HTS7000plus plate reader. […] The optical density was measured at 590 nm using a plate reader HTS7000plus (Perkin Elmer).

Data set [7] deals with PGE2 Synthesis. Kind of data set: IL-1β induced PGE2 synthesis in chondrocyte culture (RIA). The data set is classed as cell-based, New Zealand white rabbits. To be noted: Oryctolagus cuniculus, rabbit articular chondrocytes, stimulation with 0.3 ng/mL of IL-1β, 24 h, read-out: PGE2 Synthesis inhibitory activity IC50. On the procedure:
as §1, §2
PGE2 released into the culture medium was determined with a RadioImmunoAssay (RIA) performed according to the instructions of the PGE2 antiserum manufacturer (Sigma). […] The supernatant was counted in 7 ml of Ultima-Gold MV® and the amount of radioactivity measured in a Packard Tricarb β-counter. […]

Data set [8] deals with NO Synthesis. Kind of data set: IL-1β induced NO synthesis in chondrocyte culture (nitrite, DAN fluorometric method). It is filed as cell-based, New Zealand white rabbits. To be noted: Oryctolagus cuniculus, rabbit articular chondrocytes, stimulation with 0.3 ng/mL of IL-1β, 24 h, read-out: NO Synthesis inhibitory activity IC50. As to the method: as §1
Normal articular chondrocytes were obtained from young New Zealand white rabbits. Shoulders, femoral heads and knees were detached and transferred under a laminar flow hood. The articular cartilage was removed from the articular surfaces under sterile conditions. Tissue fragments were successively digested in an incubator (37°C, 5% CO2/95% air) with enzymes dissolved in DMEM plus 50 µg/ml gentamicin and sterile filtered. The three-step digestion was carried out with 0.05% testicular hyaluronidase for 15 min, followed by 0.25% trypsin for 30 min, and 0.2% clostridium collagenase for 90 min. […]
NO production by chondrocytes was measured as nitrite, a stable end product and a reliable indicator of NO synthesis. Nitrites released in the culture supernatant were quantified with the fluorometric method according to Misko (Misko TP, Schilling RJ, Salvemini D, Moore WM, Currie MG. Anal Biochem; 214:11-16, 1993). […] The intensity of fluorescence was recorded in a 96-well plate (optiplate, Packard) with a plate reader (HTS7000 plus, Perkin Elmer) with excitation at 360 nm and emission read at 465 nm. Nitrite concentrations were calculated from a standard curve of sodium nitrite ranging from 10 to 100 ng/ml.

Data set [9] in a line: Apparent permeability (Papp) across TC-7 cell monolayer. To be noted: human, Caco-2; TC-7 cells, pH 6.5/7.4, average of two experiments. The data set is classed as in vitro ADME. The text has this: The preferred route of administration for the compounds of the invention is oral, therefore the compound should have suitable permeability across the human intestinal epithelia to allow absorption into the circulation. However, also when the parenteral route is chosen for administration, an effective compound must be sufficiently permeable across biological membranes to reach the site/s of action. The permeability of compounds of formula (I) has been assessed in vitro using the apparent permeability coefficients approach (Papp) (Pharmacokinetics Optimization in Drug Research: biological, physicochemical and computational strategies; Bernard Testa, Han van de Waterbeemd, 2001, Wiley). The TC-7 clone was used instead of the Caco-2 cell line for this assessment, since it was reported that the two human intestinal epithelial cell lines are equivalent as far as drug transport characteristics are concerned and thus can be used interchangeably to predict absorption in humans after oral administration (MC Gres et al., Pharm. Res., 15, 5, 726-33, 1998); the experimental work was carried out as described in the mentioned literature.
(§3) Permeability and metabolic stability data are the average of two experiments.

Data set [10] is described as follows: Metabolic stability in human liver S9 fraction. The data set is classed as in vitro ADME. To be noted: human liver S9, 1µM, average of two experiments.
Source text: (§4) Metabolic stability for the compounds of the invention has been assessed using rat, dog and human liver S9 fractions, using the same methods as described in the literature (R Singh et al., Rapid Commun. Mass Spectrom., 10, 9, 1019-26, 1996).
as §3

Data set [11] is described as follows: Metabolic stability in dog liver S9 fraction. The data set is classed as in vitro ADME. To be noted: dog liver S9, 1µM, average of two experiments.
Source text: as §4, §3

Data set [12] in a line: Metabolic stability in rat liver S9 fraction. The data set is classed as in vitro ADME. To be noted: rat liver S9, 1µM, average of two experiments.
Source text: as §4, §3

Data set [13] is described as follows: Solubility in water. The data set is classed as physicochemical. To be noted: pH 7.4, aqueous buffer.

Each structure is given as a SMILES string. Read-outs that look alike come from different tables or passages of the source. Bounds are passed on as bounds.

As usually defined, the IC50 is the point on the concentration scale where inhibition reaches its midpoint. As to `O=C(O[C@@H]1Cc2c(O)cc(O)cc2O[C@@H]1c1cc(O)c(O)c(O)c1)c1cc(O)c(O)c(O)c1` [EGCG, epigallocatechin gallate], the values for the IC50 in [1], in [2] and in data set [3] were approximately 100 µM, more than 200 µM and approximately 200 µM, respectively.

As for `COc1nccc(-c2c(-c3ccc(F)cc3)ncn2C2CCNCC2)n1` [SB-242235], the IC50 in [4] is 1 to 3 µM; in [5] it was 1 µM.

A word on the Papp A→B: it is how fast a substance crosses the layer from the apical side. The term Papp B→A denotes how fast a substance crosses the layer from the basolateral side. The term solubility denotes the concentration that dissolves in the medium under given conditions. In the case of `OC[C@@H](O)[C@@H](O)[C@H](O)c1cnc([C@@H](O)[C@H](O)[C@H](O)CO)cn1` [Compound 1.1, Bis-(1R, 1'R, 2S, 2'S, 3R, 3'R)-1,2,3,4-butanetetrol-1,1'-(2,5-pyrazinediyl)], the IC50 in [6] came out at 46 µM; in data set [7], 4 µM; in data set [8], 8 µM. Further, in [9], the Papp A→B is 113 ×10⁻⁶ cm/s. Further, the Papp B→A in data set [9] amounted to 72.9 ×10⁻⁶ cm/s. Moreover, the “In vitro metabolism Parent remaining (%) Test concentration 1µM Human” value in [10] was 108%. Besides, the “In vitro metabolism Parent remaining (%) Test concentration 1µM Dog” value in data set [11] is 96%. Further, the “In vitro metabolism Parent remaining (%) Test concentration 1µM Rat” value in [12] is on record as 110%. This compound returned a solubility in [13] not above 100 mM.

Source of the values: EP1704862A1, “2,5-bis(tetrahydroxybutyl)pyrazines for the treatment of osteoarthritis and rheumatoid arthritis” (ROTTAPHARM S.P.A., priority 2005, dated 2006).
